What was measured:
[1] = test system: whole blood; experiment: Whole blood assay: oxygen equilibrium curves of whole blood; assay type: cell-based, human (homozygous sickle cell patients); conditions: compound at 1000 μM; hematocrit 20%, 1 hour at 37° C.
Method: Oxygen Equilibrium Curves (OEC) of whole blood before and after treatment with different concentrations of substituted benzaldehyde compounds were performed as follows using a HEMOX analyzer (TCS Scientific, New Hope, Pa.). Blood samples from homozygous sickle cell patients were obtained though the Hemoglobinopathy Center at Children's Hospital Oakland Research Institute (CHORI) with Institutional Review Board approval. The hematocrit was adjusted to 20% using autologous plasma and the blood samples were incubated for 1 hour at 37° C. in absence or presence of compounds. 100 μl of these samples were added to 5 mL of Hemox buffer (30 mM TES, 130 mM NaCl, 5 mM KCl, pH=7.4) at 37° C. and then transferred to the Hemox sample chamber. The samples were saturated with oxygen by flushing with compressed air for 10 minutes. The samples were then flushed with pure nitrogen and the respective absorbances of oxy- and deoxy-Hb are recorded as a function of the solution pO2. The oxygen equilibrium data were then fitted to the Hill Model to obtain values for p50. The deoxygenation curves for both whole blood alone (control) and whole blood in the presence of the compound were collected with the TCS software.
Table 5 below lists the delta p50% values where + indicates a delta p50% of between 0 and 29, ++ indicates a delta p50% of between 30 and 50, and +++ indicates a delta p50% of 50 or greater. Unless noted otherwise, the compounds in Table 2 were tested at 1000 μM.

[2] = target: T1, HbS/A (Homo sapiens, UniProt P68871+P69905, E7V); experiment: R/T assay (relaxed-to-tense transition under deoxygenated conditions); assay type: biochemical, human (homozygous sickle cell patients); conditions: 3 μM HbS/A, % R remaining vs no treatment
T1 construct: A mixture of HbS/A was purified from blood; from tissue; host or cells: blood of homozygous sickle cell patients (CHORI)
Method: A relaxed-to-tense transition assay (“R/T assay”) was used to determine the ability of substituted benzaldehyde compounds to maintain the high-oxygen affinity relaxed (R) state of hemoglobin under deoxygenated conditions. This ability can be expressed as a “delta R” value (i.e., the change in the time-period of the R state after hemoglobin is treated with a compound, as compared to the period without treatment with the compound). Delta R is the % R to remaining after the compounds treatment compared with no treatment (e.g. if R % without treatment is 8% while with treatment with a target compound is 48% R at 30 μM, then % R is 40% for that compound.
A mixture of HbS/A was purified from blood obtained from homozygous sickle cell patients though the Hemoglobinopathy Center at Children's Hospital Oakland Research Institute (CHORI) with Institutional Review Board approval. HbS/A (at a final concentration of 3 μM) was incubated for 1 hr at 37° C. in presence or absence of compounds in […] potassium phosphate buffer, pH=7.4 and 30 μM 2, 3 diphosphoglycerate (DPG) in 96 well plates in a final volume of 160 μl. Compounds were added at different concentrations (3 μM to 100 μM final concentrations). Plates were covered with a Mylar film. After incubation was completed the Mylar cover was removed and the plates were placed in a Spectrostar Nano plate reader previously heated at 37° C. Five minutes later, N2 (flow rate=20 L/min) was flowed through the spectrophotometer. Spectroscopic measurements (300 nm to 700 nm) were taken every 5 min for 2 hours. Data analysis was performed by using linear regression from the data retrieved for all wavelengths.
Table 4 below lists the delta R values where + indicates a delta R of between 0 and 30, ++ indicates a delta R of between 30 and 50, and +++ indicates a delta R of 50 or greater. Unless noted otherwise, the compounds in Table 2 were tested at 30 μM.

[3] = target: T2, purified Hemoglobin S (HbS) (Homo sapiens, UniProt P68871+P69905, E7V); experiment: Modulation of hemoglobin oxygen affinity: oxygen equilibrium curves (HEMOX) in purified HbS; assay type: biochemical, human (homozygous sickle cell patients); conditions: compound at 30 μM; 25 μM purified HbS, 45 min at 37° C.
T2 construct: HbS was purified by a modified procedure; from tissue; host or cells: blood of homozygous sickle cell patients (CHORI); for the polymerization assay purified by the CRO VIRUSYS
Procedure, shortened: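 HbS from homozygous sickle cell patient blood, 25 μM in HEMOX buffer pH 7.4, incubated 45 min at 37° C with compound (30 μM unless noted). Air-saturated then deoxygenated with N2; p50 from Hill fit; delta p50% = (control p50 − treated p50)/control p50 × 100.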

[4] = target: T3, purified HBS (Homo sapiens, UniProt P68871+P69905, E7V); experiment: Polymerization assay (delay time of HbS polymerization); assay type: biochemical, human (homozygous sickle cell patients); conditions: percent delay (% DT) vs HBS alone; 50 μM purified HBS, 1.8 M potassium phosphate pH 7.4
T3 construct: HbS was purified by a modified procedure; from tissue; host or cells: blood of homozygous sickle cell patients (CHORI); for the polymerization assay purified by the CRO VIRUSYS
Method: Polymerization assays are carried out in vitro using purified HBS exchanged into 1.8 M potassium phosphate buffer at pH 7.4. Using a slightly modified protocol (Antonini and Brunori, 1971), HbS is purified by the CRO VIRUSYS, from blood obtained from homozygous sickle cell patients through the Hemoglobinopathy Center at Children's Hospital Oakland Research Institute (CHORI) with Institutional Review Board approval. Compounds are prepared in 100% DMSO and a desired amount is added to 50 μM of purified HBS at a final DMSO concentration of 0.3%. Final potassium phosphate concentration is adjusted to 1.8 M using a combination of 2.5 M potassium phosphate stock solution and water at pH 7.4. The reaction mixture is incubated for an hour at 37° C. and then transferred into a 24-well plate for deoxygenation in a glove box containing 99.5% nitrogen and 0.5% oxygen. The 24-well plate is not covered and incubated at 4° C. on a plate cooler inside the glove box for one and a half hours. Fifty μL of the reaction mixture is transferred into a 96-well plate and the absorbance at 700 nm is measured every minute for one hour at 37° C. in a plate reader located inside the glove box. A plot of the absorbance against time is fitted using a Boltzman sigmoidal fit and the delay time (from zero to time at half Vmax) is measured. To compare and rank compounds, delay times are expressed as percent delay (% DT), which is defined as the difference in delay times for HBS/compound and HBS alone multiplied by 100 and divided by the delay time for HBS alone.
Compounds listed below have been tested in the polymerization assay. Activity ranges are defined by the number of dagger (†) symbols indicated. † denotes activity ≥40% but ≤80%; †† denotes activity >80% but ≤120%; ††† denotes activity >120% but ≤140%; †††† denotes activity >160%.

Compound | delta p50% Values for Whole Blood Assay [1] | delta R ([2]; compound at 9 μM) | delta p50% [3] | delta R ([2]; compound at 30 μM) | % delta Delay [4]
COc1cc(C=O)c(OCc2cccnc2-c2cnn(C)c2C)cn1 [Compound 143, 5-((2-(1,5-dimethyl-1H-pyrazol-4-yl)pyridin-3-yl)methoxy)-2-methoxyisonicotinaldehyde] | + (a delta p50% of between 0 and 29) | + (a delta R of between 0 and 30) | ++ (a delta p50% of between 30 and 50) | – | –
COCCOc1cc(C=O)c(OCc2cccn3ccnc23)cn1 [Compound 179, 5-(imidazo[1,2-a]pyridin-8-ylmethoxy)-2-(2-methoxyethoxy) isonicotinaldehyde] | ++ (a delta p50% of between 30 and 50) | + (a delta R of between 0 and 30) | ++ (a delta p50% of between 30 and 50) | – | –
COc1cc(C=O)c(OCc2cccnc2C(C)(C)O)cn1 [Compound 183, 5-((2-(2-hydroxypropan-2-yl)pyridin-3-yl)methoxy)-2-methoxyisonicotinaldehyde] | +++ (a delta p50% of 50 or greater) | – | +++ (a delta p50% of 50 or greater) | ++ (a delta R of between 30 and 50) | –
COCCOc1cc(C=O)c(OCc2cccnc2-c2ccnn2C)cn1 [Compound 184, 2-(2-methoxyethoxy)-5-((2-(1-methyl-1H-pyrazol-5-yl)pyridin-3-yl)methoxy)isonicotinaldehyde] | +++ (a delta p50% of 50 or greater) | – | ++ (a delta p50% of between 30 and 50) | ++ (a delta R of between 30 and 50) | –
COc1cncc(OCc2cccnc2-c2ccnn2C(C)C)c1C=O [Compound 188, 3-((2-(1-isopropyl-1H-pyrazol-5-yl)pyridin-3-yl)methoxy)-5-methoxyisonicotinaldehyde] | +++ (a delta p50% of 50 or greater) | – | +++ (a delta p50% of 50 or greater) | – | ††† (activity >120% but ≤140%)
COc1cc(C=O)c(OCc2cccnc2-c2ncnn2C(C)C)cn1 [Compound 189, 5-((2-(2-isopropyl-2H-1,2,4-triazol-3-yl)pyridin-3-yl)methoxy)-2-methoxyisonicotinaldehyde] | +++ (a delta p50% of 50 or greater) | – | ++ (a delta p50% of between 30 and 50) | – | ††† (activity >120% but ≤140%)
COc1cc(C=O)c(OCc2cccnc2-c2c(C)cnn2C(C)C)cn1 [Compound 190, 5-((2-(1-isopropyl-4-methyl-1H-pyrazol-5-yl)pyridin-3-yl)methoxy)-2-methoxyisonicotinaldehyde] | +++ (a delta p50% of 50 or greater) | – | +++ (a delta p50% of 50 or greater) | – | ††† (activity >120% but ≤140%)
COc1cc(C=O)c(OCc2cccnc2-c2ccnn2CCO)cn1 [Compound 191, 5-((2-(1-(2-hydroxyethyl)-1H-pyrazol-5-yl)pyridin-3-yl)methoxy)-2-methoxyisonicotinaldehyde] | +++ (a delta p50% of 50 or greater) | + (a delta R of between 0 and 30) | +++ (a delta p50% of 50 or greater) | – | –
Cc1cn[nH]c1-c1ncccc1COc1c[nH]c(=O)cc1C=O [Compound 194, 5-((2-(4-methyl-1H-pyrazol-5-yl)pyridin-3-yl)methoxy)-2-oxo-1,2-dihydropyridine-4-carbaldehyde] | + (a delta p50% of between 0 and 29) | + (a delta R of between 0 and 30) | ++ (a delta p50% of between 30 and 50) | – | –
COc1cc(C=O)c(OCc2cccnc2-c2ccnn2C2CCCCC2)cn1 [Compound 196, 5-((2-(1-cyclohexyl-1H-pyrazol-5-yl)pyridin-3-yl)methoxy)-2-methoxyisonicotinaldehyde] | ++ (a delta p50% of between 30 and 50) | – | +++ (a delta p50% of 50 or greater) | ++ (a delta R of between 30 and 50) | –
COC(=O)CCn1nccc1-c1ncccc1COc1cnc(OC)cc1C=O [Compound 200, methyl 3-(5-(3-(((4-formyl-6-methoxypyridin-3-yl)oxy)methyl)pyridin-2-yl)-1H-pyrazol-1-yl)propanoate] | +++ (a delta p50% of 50 or greater) | + (a delta R of between 0 and 30) | ++ (a delta p50% of between 30 and 50) | – | –
COc1cc(C=O)c(OCc2cccnc2-c2ccn(CCC(=O)O)n2)cn1 [Compound 201, 3-(3-(3-((4-formyl-6-methoxypyridin-3-yloxy)methyl)pyridin-2-yl)-1H-pyrazol-1-yl)propanoic acid] | + (a delta p50% of between 0 and 29) | + (a delta R of between 0 and 30) | ++ (a delta p50% of between 30 and 50) | – | –
COc1cc(C=O)c(OCc2cccc(C(=O)O)c2)cn1 [Compound 203, 3-(((4-formyl-6-methoxypyridin-3-yl)oxy)methyl)benzoic acid] | – | + (a delta R of between 0 and 30) | +++ (a delta p50% of 50 or greater) | – | †† (activity >80% but ≤120%)

Reference: patent US10377741B2, “Substituted heteroaryl aldehyde compounds and methods for their use in increasing tissue oxygenation” (Global Blood Therapeutics, Inc., priority 2011, dated 2019)
